Test results as given in patent US7705118B2, “Methods for preparing internally constrained peptides and peptidomimetics” (New York University, priority 2004, dated 2010).

Legend:
[1] = Circular dichroism of constrained peptide 3 and control peptide 1; format: physicochemical; settings: aqueous buffer and TFE solutions
Method: The structure of constrained peptide 3 was studied with circular dichroism (“CD”). CD studies on the constrained peptide 3 and the control peptide 1 in 30 mM phosphate buffer pH 7.0 were performed to obtain a quantitative measure of the helical content. […] The relative percent helicity of peptides can theoretically be measured by the mean residue ellipticity at 222 nm (Lyu et al., “Alpha-helix Stabilization by Natural and Unnatural Amino Acids with Alkyl Side Chains,” Proc. Nat'l Acad. Sci. 88:5317-5320 (1991), which is hereby incorporated by reference in its entirety), although these estimates are not typically accurate for short helices.
CD spectra were recorded on an AVIV 202SF CD spectrometer equipped with a temperature controller using 1 mm path length cells. The scan speed was set to 5 nm/min and spectra were averaged over 5 scans. Spectral baselines were obtained under analogous conditions as that for the samples. All spectra are baseline subtracted, converted to a uniform scale of molar ellipticity, and replotted. The helix content of each peptide was determined from the mean residue CD at 222 nm, [θ]222 (deg cm^2 dmol^−1) corrected for the number of amide bonds (Chin et al., Proc. Nat'l Acad. Sci. U.S.A., 99:15416-15421 (2002); Chen et al., Biochemistry, 11:4120-4131 (1972), which are hereby incorporated by reference in their entirety). […]

[2] = Circular dichroism of Bak BH3 peptides in 20% TFE/PBS; format: physicochemical; settings: 20% TFE in PBS, 50 μM, 25° C., Yang's method
Method: The α-helical conformation of constrained peptide 10a was determined by circular dichroism spectroscopy. […] The HBS α-helix 10a is roughly 46% helical as measured by Yang's method (Chen et al., Biochemistry, 11:4120-4131 (1972), which is hereby incorporated by reference in its entirety). […]
CD spectra were recorded on AVIV 202SF CD spectrometer equipped with a temperature controller using 1 mm length cells and a scan speed of 5 nm/min at 25° C. […] The helix content of each peptide was determined from the mean residue CD at 222 nm, [θ]222 (deg cm^2 dmol^−1) corrected for the number of amide bonds (Chen et al., Biochemistry 11:4120-4131 (1972), which is hereby incorporated by reference in its entirety). Percent helicity was calculated from ratio [θ]222/[θ]max, where [θ]max=−39500×[1−(2.57/n)]. The [θ]max for HBS α-helices is calculated to be −33155 for n=16 (number of amide bonds in the peptide).

Method for trypsin: At different time intervals, 100 μL of the above solution was taken out, quenched with 100 μL of 2% TFA aqueous solution, and then injected into reversed-phase HPLC to analyze the change in the area of the peptide peak compared to the area of internal control (tryptophan).

| SMILES | CD spectrum [1] | percent helicity [2] [%] | proteolysis in the presence of trypsin (trypsin) |
| --- | --- | --- | --- |
| COC(=O)[C@@H](NC(=O)[C@@H](NC(=O)[C@@H](NC(=O)[C@@H](NC(=O)[C@@H](NC(=O)[C@@H](NC(=O)[C@@H](NC(=O)[C@H](NCC=O)NC(C)=O)N[C@@H](C=O)CCC(=O)O)N[C@@H](C)C=O)N[C@@H](C)C=O)N[C@@H](C)C=O)N[C@@H](C)C=O)N[C@@H](C=O)CCC(=O)O)N[C@@H](C)C=O [peptide 1] | featureless spectrum | – | – |
| CC[C@H](C)[C@H](NC(=O)[C@H](C)NC(=O)[C@H](CC(C)C)NC(=O)[C@H](CCC(N)=O)NC(=O)[C@H](CCCNC(=N)N)NC(=O)CNC(=O)[C@@H](NC(=O)[C@H](CCC(N)=O)NC(=O)CNC(C)=O)C(C)C)C(=O)N[C@H](C(=O)NCC(=O)N[C@@H](CC(=O)O)C(=O)N[C@@H](CC(=O)O)C(=O)N[C@H](C(=O)N[C@@H](CC(N)=O)C(=O)N[C@@H](CCCNC(=N)N)C(N)=O)[C@@H](C)CC)[C@@H](C)CC [peptide 9a] | – | ~26 | rapid proteolysis |
